Results from ChEMBL document CHEMBL3585308, “Discovery and Modification of in Vivo Active Nrf2 Activators with 1,2,4-Oxadiazole Core: Hits Identification and Structure-Activity Relationship Study” (J Med Chem, 2015).
In brackets after ≈: the same amount, converted by molar mass. Activity calls are given as the source filed them. No cut-off for these calls is given here.

Experiments:
[1] = target: T1, Nuclear factor erythroid 2-related factor 2 (Homo sapiens) (UniProt Q16236); assay: Activation of Nrf2 in human HepG2-ARE-C8 cells assessed as upregulation of ARE level at 0.02 uM after 12 hrs by luciferase reporter gene assay relative to control; type: cell-based
T1 sequence (whole entry): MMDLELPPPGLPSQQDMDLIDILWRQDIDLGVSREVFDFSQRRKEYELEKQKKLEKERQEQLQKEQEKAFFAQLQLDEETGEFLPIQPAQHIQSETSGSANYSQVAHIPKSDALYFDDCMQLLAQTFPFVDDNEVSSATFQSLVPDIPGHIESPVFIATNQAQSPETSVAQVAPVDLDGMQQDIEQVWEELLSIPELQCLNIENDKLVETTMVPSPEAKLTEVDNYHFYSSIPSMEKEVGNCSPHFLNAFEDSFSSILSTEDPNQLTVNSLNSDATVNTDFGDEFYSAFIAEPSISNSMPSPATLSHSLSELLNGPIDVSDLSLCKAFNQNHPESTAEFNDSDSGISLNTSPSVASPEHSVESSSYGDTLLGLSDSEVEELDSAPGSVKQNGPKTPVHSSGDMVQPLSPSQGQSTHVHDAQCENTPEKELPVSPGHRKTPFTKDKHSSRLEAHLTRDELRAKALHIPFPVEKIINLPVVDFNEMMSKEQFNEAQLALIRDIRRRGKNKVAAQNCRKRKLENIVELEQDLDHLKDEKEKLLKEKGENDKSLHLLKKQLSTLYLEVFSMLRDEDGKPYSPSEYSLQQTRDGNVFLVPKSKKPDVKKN

[2] = target: T1, Nuclear factor erythroid 2-related factor 2 (Homo sapiens); assay: Activation of Nrf2 in human HepG2-ARE-C8 cells assessed as upregulation of ARE level at 40 uM after 12 hrs by luciferase reporter gene assay relative to control; type: cell-based
[3] = target: T1, Nuclear factor erythroid 2-related factor 2 (Homo sapiens); assay: Activation of Nrf2 in human HepG2-ARE-C8 cells assessed as upregulation of ARE level at 20 uM after 12 hrs by luciferase reporter gene assay relative to control; type: cell-based
[4] = target: T1, Nuclear factor erythroid 2-related factor 2 (Homo sapiens); assay: Activation of Nrf2 in human HepG2-ARE-C8 cells assessed as upregulation of ARE level at 0.2 uM after 12 hrs by luciferase reporter gene assay relative to control; type: cell-based
[5] = target: T1, Nuclear factor erythroid 2-related factor 2 (Homo sapiens); assay: Activation of Nrf2 in human HepG2-ARE-C8 cells assessed as upregulation of ARE level at 160 uM after 12 hrs by luciferase reporter gene assay relative to control; type: cell-based
HCT-116 [6] = assay: Cytotoxicity against human HCT116 cells assessed as effect on cell proliferation at 5 to 80 uM after 24 hrs by MTT assay; type: cell-based; settings: hct-116, 24 h
[7] = target: T1, Nuclear factor erythroid 2-related factor 2 (Homo sapiens); assay: Activation of Nrf2 in human HepG2-ARE-C8 cells assessed as upregulation of ARE level at 2 uM after 12 hrs by luciferase reporter gene assay relative to control; type: cell-based
[8] = target: T1, Nuclear factor erythroid 2-related factor 2 (Homo sapiens); assay: Activation of Nrf2 in human HepG2-ARE-C8 cells assessed as upregulation of ARE level at 80 uM after 12 hrs by luciferase reporter gene assay relative to control; type: cell-based
[9] = target: T1, Nuclear factor erythroid 2-related factor 2 (Homo sapiens); assay: Activation of Nrf2 in human HepG2-ARE-C8 cells assessed as upregulation of ARE level at 50 uM after 12 hrs by luciferase reporter gene assay relative to control; type: cell-based
[10] = Dissociation constant, pKa of the compound by potentiometric titration method; type: physicochemical
HCT-116 [11] = assay: Cytotoxicity against human HCT116 cells assessed as reduction of cell proliferation at 80 uM after 24 hrs by MTT assay; type: cell-based; settings: hct-116, 24 h
[12] = Intrinsic aqueous solubility of the compound by potentiometric titration method; type: physicochemical; settings: read-out: Intrinsic_solubility
[13] = Lipophilicity, log D of the compound at pH 7.4 by potentiometric titration method; type: physicochemical; settings: buffer
[14] = Permeability of the compound at pH 7.4 by PAMPA; type: physicochemical; settings: read-out: permeability
[15] = target: T1, Nuclear factor erythroid 2-related factor 2 (Homo sapiens); assay: Activation of Nrf2 in human HCT116 cells measured at 4 hrs by qRT-PCR analysis; type: cell-based; settings: HCT-116
[16] = target: T1, Nuclear factor erythroid 2-related factor 2 (Homo sapiens); assay: Activation of Nrf2 in human HCT116 cells assessed as upregulation of HO-1 expression at 10 uM measured at 4 hrs by Western blot analysis; type: cell-based; settings: HCT-116
[17] = target: T1, Nuclear factor erythroid 2-related factor 2 (Homo sapiens); assay: Activation of Nrf2 in human HCT116 cells assessed as upregulation of NQO1 gene expression at 10 uM measured over 1 to 24 hrs by qRT-PCR analysis relative to control; type: cell-based; settings: HCT-116
[18] = target: T1, Nuclear factor erythroid 2-related factor 2 (Homo sapiens); assay: Activation of Nrf2 in human HCT116 cells assessed as upregulation of HO-1 gene expression at 40 uM measured at 4 hrs by qRT-PCR analysis relative to control; type: cell-based; settings: HCT-116
[19] = target: T1, Nuclear factor erythroid 2-related factor 2 (Homo sapiens); assay: Activation of Nrf2 in human HCT116 cells assessed as upregulation of NQO1 expression after 6 hrs by Western blot analysis; type: cell-based; settings: HCT-116
[20] = target: T1, Nuclear factor erythroid 2-related factor 2 (Homo sapiens); assay: Activation of Nrf2 in human HCT116 cells assessed as upregulation of NQO1 gene expression at 40 uM measured at 4 hrs by qRT-PCR analysis relative to control; type: cell-based; settings: HCT-116
[21] = target: T1, Nuclear factor erythroid 2-related factor 2 (Homo sapiens); assay: Activation of Nrf2 in human HCT116 cells assessed as upregulation of HO-1 gene expression measured at 4 hrs by qRT-PCR analysis; type: cell-based; settings: HCT-116
[22] = target: T1, Nuclear factor erythroid 2-related factor 2 (Homo sapiens); assay: Activation of Nrf2 in human HCT116 cells assessed as upregulation of GCLM gene expression at 10 uM measured at 6 hrs by qRT-PCR analysis relative to control; type: cell-based; settings: HCT-116
[23] = target: T1, Nuclear factor erythroid 2-related factor 2 (Homo sapiens); assay: Activation of Nrf2 in human HCT116 cells assessed as upregulation of GCLM gene expression measured at 4 hrs by qRT-PCR analysis; type: cell-based; settings: HCT-116
[24] = target: T1, Nuclear factor erythroid 2-related factor 2 (Homo sapiens); assay: Activation of Nrf2 in human HCT116 cells at 40 uM measured at 4 hrs by qRT-PCR analysis relative to control; type: cell-based; settings: HCT-116
[25] = target: T1, Nuclear factor erythroid 2-related factor 2 (Homo sapiens); assay: Activation of Nrf2 in human HCT116 cells at 10 uM after 2 hrs by Western blot analysis; type: cell-based; settings: HCT-116
[26] = target: T1, Nuclear factor erythroid 2-related factor 2 (Homo sapiens); assay: Activation of Nrf2 in human HCT116 cells at 10 uM measured at 4 hrs by qRT-PCR analysis relative to control; type: cell-based; settings: HCT-116
[27] = target: T1, Nuclear factor erythroid 2-related factor 2 (Homo sapiens); assay: Activation of Nrf2 in human HCT116 cells after 6 hrs by Western blot analysis; type: cell-based; settings: HCT-116
[28] = target: T1, Nuclear factor erythroid 2-related factor 2 (Homo sapiens); assay: Activation of Nrf2 in human HCT116 cells at 10 uM by qRT-PCR analysis; type: cell-based; settings: HCT-116, TDE = time-dependent effect
[29] = target: T1, Nuclear factor erythroid 2-related factor 2 (Homo sapiens); assay: Activation of Nrf2 in human HCT116 cells assessed as upregulation of GCLM gene expression at 40 uM measured at 4 hrs by qRT-PCR analysis relative to control; type: cell-based; settings: HCT-116
[30] = target: T1, Nuclear factor erythroid 2-related factor 2 (Homo sapiens); assay: Activation of Nrf2 in human HCT116 cells assessed as upregulation of HO-1 gene expression at 10 uM measured at 6 hrs by qRT-PCR analysis relative to control; type: cell-based; settings: HCT-116
[31] = Chemical stability assessed as compound degradation after 2 weeks; type: physicochemical; settings: 336 h

Structure (SMILES) | fold change (FC) [1] | fold change (FC) [2] | fold change (FC) [3] | fold change (FC) [4] | fold change (FC) [5] | fold change (FC) [7] | fold change (FC) [8] | Papp [14] [×10⁻⁶ cm/s] | Activity (HCT-116 [11]) | further results
Cn1nnc2cc(-c3noc(-c4ccccc4)n3)ccc21 | 1.18 | 7.34 | 5.65 | 1.12 | 11.7 | 4.48 | 7.67 |  |  | Activity (HCT-116 [6]): Non-toxic
Cc1nc2cc(-c3noc(-c4ccccc4Br)n3)ccc2o1 | 1.18 | 4.05 | 3.31 | 1.22 | 6 | 1.47 | 5.88 |  |  | fold change (FC) [9]: 5.47
c1ccc(-c2nc(-c3ccc4nc[nH]c4c3)no2)cc1 | 1.49 | 23.7 | 21.4 | 4.72 | 4.46 | 14.2 | 3.19 | 5.26 | Non-toxic | pKa [10]: 3.69; solubility [12]: 12.3 µM (≈ 3.23 µg/mL); logD [13]: 3.66
CC(C(=O)O)c1cccc(C(=O)c2ccccc2)c1 (centres undefined) [KETOPROFEN] |  |  |  |  |  |  |  | 1.93 |  | 
Cn1cnc2ccc(-c3noc(-c4ccc5cc[nH]c5c4)n3)cc21 | 1.09 | 12.4 | 7.61 | 1.5 | 8.73 | 3.35 | 12.1 |  |  | Activity [15]: Dose-dependent effect; Activity [16]: Active; fold change (FC) [17]: 1.5; Activity (HCT-116 [6]): Non-toxic; fold change (FC) [18]: 7; Activity [19]: Dose-dependent effect; fold change (FC) [20]: 2; Activity [21]: Dose-dependent effect; fold change (FC) [22]: 2.5; Activity [23]: Dose-dependent effect; fold change (FC) [24]: 3.4; Activity [25]: Active; fold change (FC) [26]: 5; Activity [27]: Dose-dependent effect; Activity [28]: tde; fold change (FC) [29]: 3.8; fold change (FC) [30]: 2.4

Now from value to molecule, other results behind:

fold change (FC) [1] | fold change (FC) [2] | fold change (FC) [3] | fold change (FC) [4] | fold change (FC) [5] | fold change (FC) [7] | fold change (FC) [8] | Papp [14] [×10⁻⁶ cm/s] | Structure (SMILES) | Activity (HCT-116 [11]) | further results
1.31 | 3.44 | 13.4 | 2.36 | 2.49 | 12.7 | 2.75 | 11.2 | Brc1ccc(-c2nc(-c3ccc4nc[nH]c4c3)no2)cc1 | Non-toxic | pKa [10]: 3.25; solubility [12]: 35.4 µM (≈ 12.1 µg/mL); logD [13]: 3.54
1.64 | 36.7 | 15.6 | 2.02 | 38.3 | 6.59 | 30.6 |  | O=[N+]([O-])c1ccc(-c2nc(-c3ccc4nc[nH]c4c3)no2)cc1 | Non-toxic | Stability [31]: Unstable
